Laboratory results taken from publication PMC11284787, “Ligand-Directed Labeling of the Adenosine A1 Receptor in Living Cells” (Journal of Medicinal Chemistry, 2024).

Tested on: T1, SNAP-hA1AR
T1 construct: expressed in transfected cells; host or cells: HEK293T, transient transfection (FuGENE HD)
Assay: Live-cell confocal microscopy of SNAP-hA1AR HEK293T cells
Type: cell-based, human
Conditions: for fluorescent labeling of SNAP-hA1AR at the plasma membrane: 125 nM 11 or 50 nM 12 (then MetTet-SulfoCy5) for 2 h; for labeling of SNAP-hA1AR after pretreatment with 10 μM DPCPX: 10 μM DPCPX pretreatment 30 min; for fluorescence intensity after 10 μM DPCPX added to prelabeled cells: prelabeled 2 h, then 10 μM DPCPX 1 h, P > 0.05
Excerpt: Having investigated the molecular pharmacology of 11 and 12 in a series of in vitro assays, we sought to apply the LD probes for studying A1AR localization and dynamics in living cells. To this end, LD probes 11 and 12 were initially used in confocal microscopy studies to test their ability to label and allow visualization of the SNAP-hA1AR in living HEK293T cells (Figure 6). […] With both probes, the fluorescence labeling colocalized with SNAP-hA1AR labeled with AF488 (Figure 6A,C top frames).
Cells were labeled with membrane impermeable SNAP-AF488 for 30 min prior to treatment with 11 and 12 for 2 h, respectively, with the latter followed by the addition of 1 μM methyltetrazine (Met-Tet) SulfoCy5 for 5 min prior to the acquisition of the single equatorial images. […] For all the conditions, left-hand frames represent the SulfoCy5 channel (magenta), middle frames are the SNAP-hA1AR AF488 (green) channel, and right-hand frames represent merged images of both channels, with white indicating the overlap of magenta and green. (B, E) Fluorescence intensity plots (16-bit) were generated for both SulfoCy5 and AF488 channels by hand drawing the region of interest (ROI) in images obtained as indicated in (A) and (C) using ImageJ (FIJI). Data points represent membrane fluorescence signals measured from ROI drawn in each cell, and error bars represent mean ± standard deviation (SD). Images are representative of images obtained from three independent experiments from which 72 to 83 cells were analyzed. Scale bars are = 13 μm for (A) and 10 μm for (C). (D) Schematic representation of the biorthogonal IEDDA reaction between the TCO group (covalently attached to the hA1AR by ligand-directed chemistry) and SulfoCy5-conjugated methyltetrazine (MetTet-SulfoCy5). Following the click IEDDA reaction, the formation of the 4,5-dihydropyridazine cycloadduct increases the fluorescence intensity of the fluorophore conjugated to the tetrazine moiety. […]
using a Zeiss LSM880 confocal microscope as described in the confocal imaging […]
HEK293T cells were seeded in 8-well plates (Nunc Lab-Tek, Thermo Fischer Scientific), pre-coated with Poly-D-Lysine, at 20,000 cells/well in DMEM/10% FCS.
24 h post seeding, cells were transiently transfected with human SNAP-A1. Transient transfections were carried out following manufacturer’s protocol: used FuGENE HD at 3:1 ratio of reagent to cDNA with a total of 300 ng cDNA per well. Transfection solutions were made up in Gibco Opti-MEM (Thermo Fischer Scientific), incubated at RT for 5 min and added as 11 µL per well. Cells were incubated for additional 24 h at 37 OC, 5% CO2. On the day of the experiment medium was removed and the cells were labelled for 30 min at 37 °C with 0.2 µM SNAP-surface AF488 in SFM. After washing twice with SFM the cells were treated with or without 10 µM competitive A 1AR- […]
Following the incubation step, the ligand-directed probe under investigation (SulfoCy5 or PEG-TCO) (11 or 12) was added to the appropriate wells at the required concentrations and incubated for 2 h. After that time, cells were washed 4x with warm HBSS, followed by the addition of 300 µL warm HBSS and imaged. For click-chemistry reactions, after washing 4x with warm HBSS, cells pre-labelled with the trans-cyclooctene-conjugated 12 (PEG-TCO) at 50 nM were subsequently treated with 1 µM Methyl-TetrazineSulfoCy5 (Lumiprobe, Germany) for 5 min at RT in the dark. Cells were washed 2x with warm HBSS and imaged. When […]
1 h before imaging. […]
Live cell imaging was performed using either a Zeiss LSM 710 or LSM880 laser scanning confocal microscope fitted with a Zeiss C-Apochromat 40 × 1.2 NA water immersion objective. A 633 nm HeNe laser was used for the excitation of SulfoCy5 fluorophore and a 488/561/633 dichroic, and the emission was detected between 634 […]
and 755 nm. A 488 nm […] laser was used to excite SNAP-AF488 and the emission was detected between 493 and 586 nm. The pinhole diameter (1 Airy Unit; 1.1 μm […]

Row | SMILES | fluorescent labeling of SNAP-hA1AR at the plasma membrane | labeling of SNAP-hA1AR after pretreatment with 10 μM DPCPX | fluorescence intensity after 10 μM DPCPX added to prelabeled cells
1 | CCCCn1c(=O)c2[nH]c(C34CCC(C(=O)NCCNC(=O)CCNC(=O)c5ccc(OC(=O)CCCCC[N+]6=C(/C=C/C=C/C=C7/N(C)c8ccc(S(=O)(=O)O)cc8C7(C)C)C(C)(C)c7cc(S(=O)(=O)[O-])ccc76)c(F)c5)(CC3)CC4)nc2n(CCCC)c1=O [Compound 11, 1-(6-(4-((3-((2-(4-(1,3-Dibutyl-2,6-dioxo-2,3,6,7-tetrahydro-1H-purin-8-yl)bicyclo[2.2.2]octane-1-carboxamido)ethyl)amino)-3-oxopropyl)carbamoyl)-2-fluorophenoxy)-6-oxohexyl)-3,3-dimethyl-2-((1E,3E)-5-((E)-1,3,3-trimethyl-5-sulfoindolin-2-ylidene)penta-1,3-dien-1-yl)-3H-indol-1-ium-5-sulfonate] | Clear fluorescent labeling | prevented the labeling | did not change their fluorescence intensities
2 | CCCCn1c(=O)c2[nH]c(C34CCC(C(=O)NCCNC(=O)CCNC(=O)c5ccc(OC(=O)CCC(=O)NCCOCCOCCNC(=O)O[C@H]6CC/C=C/CCC6)c(F)c5)(CC3)CC4)nc2n(CCCC)c1=O [Compound 12, 4-((3-((2-(4-(1,3-Dibutyl-2,6-dioxo-2,3,6,7-tetrahydro-1H-purin-8-yl)bicyclo[2.2.2]octane-1-carboxamido)ethyl)amino)-3-oxopropyl)carbamoyl)-2-fluorophenyl (R,E)-1-(Cyclooct-4-en-1-yloxy)-1,12-dioxo-5,8-dioxa-2,11-diazapentadecan-15-oate] | Clear fluorescent labeling | prevented the labeling | did not change their fluorescence intensities
